Results reported in patent publication US10363284B2, “β-hairpin peptidomimetics” (POLYPHOR AG, priority 2012, dated 2019).
Read-outs that look alike come from different tables or passages of the source. Positions of bridges follow the written chain, without caps; N, C: chain ends. Non-standard residues stand in square brackets, D forms with d. Residues, ends and D or L forms follow the SMILES beside them. dLys(iPr) = CC(C)NCCCC[C@@H](N)C(=O)O; Lys(iPr) = CC(C)NCCCC[C@H](N)C(=O)O; Orn(iPr) = CC(C)NCCC[C@H](N)C(=O)O; Ac3c = NC1(C(=O)O)CC1

Key:
[1] = in vitro; type: cell-based
Description: Namalwa cells (CXCR4 natively expressing non-adherent cells, ATCC CRL-1432) were cultured in RPM11640 plus 10% FBS, and pen/strept. HELA cells were maintained in RPMI1640 plus 10% FBS, pen/strept and 2 mM L-glutamine. Cos-7 cells were grown in DMEM medium with […] glucose supplemented with 10% FCS, pen/strept and 2 mM L-glutamine. All cell lines were grown at 37° C. at 5% CO2. Cell media, media supplements, PBS-buffer, HEPES, antibiotic/antimycotic, pen/strept, non essential amino acid, L-glutamine, β-mercaptoethanol and sera were purchased from Gibco (Pailsey, UK). All fine chemicals were supplied by Merck (Darmstadt, Germany).
The cytotoxicity of the peptides to HELA cells (Acc57) and COS-7 cells (CRL-1651) was determined using the MTT reduction assay (T. Mossman, J. Immunol. Meth. 1983, 65, 55-63; M. V. Berridge, A. S. Tan, Arch. Biochem. Biophys. 1993, 303, 474-482). Briefly, the method was as follows: 4000 HELA cells/well and 3400 COS-7 cells/well were seeded and grown in 96-well microtiter plates for 24 h at 37° C. at 5% CO2. Thereafter, time zero (Tz) was determined by MTT reduction (see below). The supernatant of the remaining wells was discarded, and fresh medium and compounds in serial dilutions (12.5, 25 and 50 μM, triplicates; 0 μM, blank) were pipetted into the wells. After incubation of the cells for 48 h at 37° C. at 5% CO2 the supernatant was discarded again and 100 μL MTT reagent (0.5 mg/mL in RPMI1640 and DMEM, respectively)/well was added. Following incubation at 37° C. for 2-4 h the media were aspirated and the cells were spiked (100 μL isopropanol/well). The absorbance of the solubilized formazan was measured at 595 nm (OD595peptide). For each concentration averages were calculated from triplicates. The percentage of growth was calculated as follows: (OD595peptide−OD595Tz)/(OD595blank−OD595Tz)×100%. The GI50 (Growth Inhibition) concentrations were calculated for each peptide by using a trend line function for the concentrations (50, 25, 12.5 and 0 μM), the corresponding percentages and the value 50, (=TREND (C50:C0,%50:%0, 50).

[2] = Plasma protein binding; type: in vitro ADME; conditions: human
Description: 495 μL aliquots of human plasma (Basler Blutspendedienst) as well as 495 μL aliquots of PBS were placed in individual deepwells of a polypropylene plate (Greiner) and spiked each with 5 μL of 1 mM solutions of peptides in 90% DMSO. After shaking the plate for 2 min at 600 rpm 150 μL aliquots of the plasma/peptide mixtures were transferred in triplicates to the polypropylene filter plate (10 kDa, Millipore) whereas 150 μL aliquots of the PBS/peptide mixtures were transferred either to the individual wells of the filter plate (filtered controls) or directly into the individual wells of the receiving plate (Greiner) (non-filtered controls). The plate sandwich consisting of filter and receiving plate was incubated for 1 h at 37° C. and subsequently centrifuged at 3220 g for 2 h at 15° C. The filtrates in the receiving plate were analysed by LC/MS as follows: Column: Waters, XBridge C18, mobile phases: (A) water+0.1% formic acid and (B) acetonitrile/water, 95/5 (v/v)+0.1% formic acid, gradient: 5%-100% (B) in 1.8 minutes, electrospray ionization, MRM detection (triple quadrupole). The peak areas were determined and triplicate values are averaged. The binding is expressed in percent of the filtered and non-filtered controls by 100−(100×T1h/Tctr). Finally the average of these values is calculated.

[3] = Plasma stability, mouse plasma; type: in vitro ADME; conditions: for mouse pl. T1/2: 37° C.; for remaining at 24 h, 10 μM: 1440 min, read-out: mouse pl. cpd left at 1440 min
Description: The stability of the peptides in human and mouse plasma was determined by applying the following method: 346.5 μL/deep well of freshly thawed human plasma (Basler Blutspende-dienst) and mouse plasma (Harlan Sera-Lab, UK), respectively, were spiked with 3.5 μL/well of compound dissolved in DMSO/H2O (90/10 [v/v], 1 mM, triplicate) and incubated at 37° C. At t=0, 15, 30, 60, 120, 240 and 1440 min aliquots of 50 μL were transferred to filtration plate wells containing 150 μL/well of 2% formic acid in acetonitrile. Following shaking for 2 min the occurred suspensions were filtrated by vacuum. 100 μL of each filtrate were transferred to a propylene microtiter plate and dried under N2. The residual solids were reconstituted by adding 100 μL/well of water/acetonitrile, 95/5 (v/v)+0.2% formic acid and analyzed by LC/MS as follows: Column: Waters, XBridge C18, mobile phases: (A) water+0.1% formic acid and (B) acetonitrile/water, 95/5 (v/v)+0.1% formic acid, gradient: 5%-100% (B) in 1.8 minutes, electrospray ionization, MRM detection (triple quadrupole). The peak areas were determined and triplicate values are averaged. The stability is expressed in percent of the initial value at t=0. (tx/t0×100). By using the TREND function of EXCEL (Microsoft Office 2003) T1/2 were determined.

[4] = Drug loading calculations via maintenance dose rate; conditions: CLiv-mouse scaled by 0.127 (GFR human/mouse)
Description: The drug load for an implant comprising a peptide of the invention was calculated following the basic principles in pharmacokinetics (see also J. Gabrielsson, D. Weiner, “Pharmacokinetics and Pharmaco-dynamics Data Analysis: Concepts and Applications”, 4th edition, Swedish Pharmaceutical Press, Stockholm, Sweden, 2006) whereby the maintenance dose rate (rate of infusion, Rin) can be defined as the rate at which a drug is to be administered to reach a steady state of a certain dose in the plasma. The maintenance dose rate can be expressed using the correlation Rin [g/(h*kg)]=CLiv, [L/(h*kg)]×Css,eff [g/L], wherein CLiv, is the clearance (i.v.—admin.) and Css,eff the effective concentration of the drug in the plasma at steady state considering an efficacy margin A: Css,eff[g/L]=A×(IC50/fu)×MW [(Mol/L)*(g/Mol)]. Therefore, the total amount of a drug loaded into an implant providing for a constant effective concentration of that drug in the plasma for a certain period of time in a subject of a certain body weight can be calculated by applying the following correlation: Drugload [g/subject]=Rin [g/(h*kg)]×duration [h]×BW [kg/subject].
Further pre-conditions are an efficacy margin of A=3, a study duration of 672 h (28 days) and a body weight of a human subject of 70 kg. […]

[5] = read-out: Plasma protein binding (converted)

CC(C)NCCCC[C@@H]1NC(=O)[C@H](CCC(N)=O)NC(=O)[C@H](Cc2ccc(O)cc2)NC(=O)[C@@H]2CSSC[C@H](NC(=O)[C@H](Cc3ccc(O)cc3)NC(=O)[C@H](Cc3c[nH]cn3)NC(=O)[C@H](Cc3ccc(O)cc3)NC(=O)[C@@H]3CCCN3C(=O)[C@@H](CCCCNC(C)C)NC1=O)C(=O)N[C@@H](CO)C(=O)N[C@@H](C)C(=O)N1CCC[C@@H]1C(=O)N[C@@H](CCCNC(C)C)C(=O)N[C@@H](CCCNC(=N)N)C(=O)N[C@@H](Cc1ccc(O)cc1)C(=O)N2 [Ex. 1, cyclo(-Tyr^1-His^2-Tyr^3-Cys^4-Ser^5-Ala^6-^DPro^7-Orn(iPr)^8-Arg^9-Tyr^10-Cys^11-Tyr^12-Gln^13-Lys(iPr)^14-^DLys(iPr)^15-Pro^16-), disulfide bond between Cys^4 and Cys^11] (cyclo(A[dP][Orn(iPr)]RYCYQ[Lys(iPr)][dLys(iPr)]PYHYCS); disulfide 6-15)
GI50 at 48 h ([1]; African green monkey): > 50 µM
GI50 at 48 h ([1]; human): > 42 µM
fraction unbound at 1 h, 10 μM ([2]; read-out: Fraction unbound, fu): 0.45
fraction unbound at 1 h, 10 μM [2, 5]: 0.45
mouse pl. T1/2 [3]: 24 h
remaining at 24 h, 10 μM [3]: 100%
CLiv, human (allometric scaled) [4]: 2.08 mL/min/kg

CC(C)NCCCC[C@@H]1NC(=O)[C@H](CCC(N)=O)NC(=O)[C@H](Cc2ccc(O)cc2)NC(=O)[C@@H]2CSSC[C@H](NC(=O)[C@H](Cc3ccc(O)cc3)NC(=O)[C@H](Cc3c[nH]cn3)NC(=O)[C@H](Cc3ccc(O)cc3)NC(=O)[C@@H]3CCCN3C(=O)[C@H]3CCCN3C1=O)C(=O)N[C@@H](CO)C(=O)NC1(CC1)C(=O)N1CCC[C@@H]1C(=O)N[C@@H](CCCNC(C)C)C(=O)N[C@@H](CCCNC(=N)N)C(=O)N[C@@H](Cc1ccc(O)cc1)C(=O)N2 [Ex. 2, cyclo(-Tyr^1-His^2-Tyr^3-Cys^4-Ser^5-Acc^6-^DPro^7-Orn(iPr)^8-Arg^9-Tyr^10-Cys^11-Tyr^12-Gln^13-Lys(iPr)^14-^DPro^15-Pro^16-), disulfide bond between Cys^4 and Cys^11] (cyclo(YHYCS[Ac3c][dP][Orn(iPr)]RYCYQ[Lys(iPr)][dP]P); disulfide 4-11)
GI50 at 48 h ([1]; African green monkey): > 50 µM
GI50 at 48 h ([1]; human): > 34 µM
fraction unbound at 1 h, 10 μM ([2]; read-out: Fraction unbound, fu): 0.57
fraction unbound at 1 h, 10 μM [2, 5]: 0.57
mouse pl. T1/2 [3]: 24 h
remaining at 24 h, 10 μM [3]: 100%
CLiv, human (allometric scaled) [4]: 1.45 mL/min/kg
